Experimental data published in paper PMC3433414, “Oral Administration of the Pimelic Diphenylamide HDAC Inhibitor HDACi 4b Is Unsuitable for Chronic Inhibition of HDAC Activity in the CNS In Vivo” (PLoS ONE, 2012).
≈ marks a conversion by molar mass, not a printed value. Like-named read-outs stand apart in the source and are kept apart here. Values belong to the compound of their own block, whether it stands above or below them.

Columns and labels:
[1] = target: T1, PPAR (h) (Homo sapiens, UniProt P37231); experiment: Cerep binding, agonist radioligand; details: read-out: % inhibition of control specific binding
T1 construct: purchased Cerep (Diversity Profile)
Description: (§1) In addition to the HDAC profiling performed, we also queried 4b for any apparent potential off-target effects, which could complicate any finding of efficacy or adverse events in vivo due to ‘polypharmacy’. This was accomplished by screening against a ‘diversity panel’ of 72 binding and 29 enzyme assays, comprised of roughly equal numbers of selective central and peripheral therapeutically relevant targets (Cerep Diversity Profile). This panel included representative targets from diverse enzyme families, G protein coupled receptors, steroid nuclear receptors, voltage- and ligand-gated ion channels. While not totally inclusive, it is a useful tool for discovery compounds to assess their viability as proof of concept molecules to specifically query a particular target. 4b was initially screened at 10 µM in duplicate. The full set of results is provided as Table S1. […] This clean in vitro profile was considered acceptable to proceed to ADME and pharmacokinetic studies.

[2] = target: T2, EP2 (h) (Homo sapiens, UniProt P43116); experiment: Cerep binding, agonist radioligand; details: read-out: % inhibition of control specific binding
T2 construct: purchased Cerep (Diversity Profile)
Description: as §1

[3] = target: T3, CB2 (h) (Homo sapiens, UniProt P34972); experiment: Cerep binding, agonist radioligand; details: read-out: % inhibition of control specific binding
T3 construct: purchased Cerep (Diversity Profile)
Description: as §1

[4] = target: T4, PR (h) (Homo sapiens, UniProt P06401); experiment: Cerep binding, agonist radioligand; details: read-out: % inhibition of control specific binding
T4 construct: purchased Cerep (Diversity Profile)
Description: as §1

[5] = target: T5, BLT1 (LTB4) (h) (Homo sapiens, UniProt Q15722); experiment: Cerep binding, agonist radioligand; details: read-out: % inhibition of control specific binding
T5 construct: purchased Cerep (Diversity Profile)
Description: as §1

[6] = target: T6, V1a (h) (Homo sapiens, UniProt P37288); experiment: Cerep binding, agonist radioligand; details: read-out: % inhibition of control specific binding
T6 construct: purchased Cerep (Diversity Profile)
Description: as §1

[7] = target: T7, TRH1 (h) (Homo sapiens, UniProt P34981); experiment: Cerep binding, agonist radioligand; details: read-out: % inhibition of control specific binding
T7 construct: purchased Cerep (Diversity Profile)
Description: as §1

[8] = target: T8, A3 (h) (Homo sapiens, UniProt P0DMS8); experiment: Cerep binding, agonist radioligand; details: read-out: % inhibition of control specific binding
T8 construct: purchased Cerep (Diversity Profile)
Description: as §1

[9] = test system: endogenous Class I HDACs/HDAC6; experiment: Cellular HDAC assay, Boc_Lys_Ac substrate, Jurkat E6.1 cells; format: cell-based
Protocol: Briefly, Jurkat E6.1 cells (obtained from the European Collection of Cell Cultures (ECACC)) were plated into 384 well plates at 75,000 cells/well in cellular assay buffer (RPMI without phenol red, 0.1% Fetal Bovine Serum, 10 mM HEPES, 1 mM Sodium Pyruvate). […] Fluorescent counts were read the following morning on the Perkin Elmer EnVision.
Each compound was tested in duplicate in concentration-response format on 3 separate days. […] A full dose response of reference compound was always included alongside the profiling, to ensure that assay parameters remained within acceptable limits.

[10] = Solubility in water, formulations and DMSO; format: physicochemical
Protocol: Thomas and colleagues reported that a solution of 4b at 1 mg/mL was previously obtained using this procedure. […] We therefore prepared both TFA and hydrochloride (HCl) salts of 4b to establish whether they could offer improved solubility. Neither salt form of 4b was particularly soluble in water (<1 mg/ml). […] A study of the stability of the TFA salt also raised another more worrying issue in the use of 2-hydroxypropyl-β-cyclodextrin–complexed 4b salts for potential in vivo studies. […] The 4b. TFA cyclodextrin suspension targeted at 1 mg/ml with heating gave an initial (day 1) measured value of 0.75 mg/ml total 4b, with only 0.27 mg/mL solubilised as quantified in the sample after filtration. The lower than expected initial quantification of 4b was most likely due to the TFA salt rapidly degrading upon heating. Indeed, we always found the presence of the cyclised benzimidazole conversion product, named throughout as product C1, in the salt formulations even at t = 0 after preparation. Furthermore, the suspension was not stable upon standing in the dark with gentle shaking at room temperature, with a further 28% decrease observed in parent (4b) concentration on day 7 analysis, compared to day 1.
As a consequence de novo formulation attempts were made with the stable free base form. After several trials with different excipients, we were able to reach a soluble formulation preparation of 1 mg/ml 4b in 2% N-methyl-2-pyrollidone, 18% polyethylene glycol 400, 10% solutol HS-15 and 70% (1% Lutrol F68 in water), a vehicle which we have previously used without any adverse effects in R6/2 model chronic efficacy trials, but is unlikely to be palatable to mice in drinking water. With this concentration, a single oral gavage dose will result in a maximum of 10 mg/kg dose level (assuming a maximum dose volume of […]), considerably lower than that estimated to have been used by Thomas et al (150 mg/kg day in drinking water). In an attempt to replicate the original dose level as close as possible, it became necessary to formulate the test compound in suspension. We achieved a stable homogeneous suspension of free base 4b up to 100 mg/ml in 0.5% carboxymethylcellulose (medium viscosity) in reverse osmosis deionized (RODI) water. This suspension was used to evaluate the oral pharmacokinetics of 4b in mice. […]

[11] = Hepatic microsomal stability; format: in vitro ADME, mouse; details: for predicted in vivo plasma clearance: from mouse microsomal half-life; for half-life at 1 µM: pooled hepatic microsomes, pH 7.4, mouse
Protocol: Incubations of test compounds (1 µM initial concentration, n = 2) were carried out with pooled hepatic microsomes (0.25 mg protein/mL in 0.1 M phosphate buffer pH 7.4). NADPH (1 mM) was added to initiate the reactions. The incubations were performed at 37°C. Samples (100 µL) were taken from the incubation at 0, 5, 10, 20 and 40 min and added to 100 µL of acetonitrile containing carbamazepine as analytical internal standard, to terminate the reaction. Samples were centrifuged and the supernatant fractions analysed by LC-MS/MS. The instrument responses (i.e. chromatographic peak heights), normalized by internal standard response were referenced to the zero time-point samples (as 100%) in order to determine the percentage of compound remaining.
Ln plots of the % remaining, for each compound, were used to determine the half-life for the microsomal incubations.
Half-life values were calculated from the relationship. [drawing 2] where λ was the slope of the Ln concentration vs time curve.
The in vitro intrinsic clearance, CLint (µL/min/mg microsomal protein), was calculated using the following formula: [drawing 3]
When quantification was required, calibration standards for parent compound and metabolites were prepared in control hepatic microsomes and extracted and analysed as described for the study samples. Quantification of parent compound or metabolite was by extrapolation from the calibration line.

[12] = test system: ER (non‐selective) (h); experiment: Cerep binding, agonist radioligand; design: species or system human; details: 10 μM
Description: as §1

[13] = mouse, 1 µM, with NADPH, read-out: in vitro half-life in hepatic microsomes

T2 sequence (P43116 whole entry): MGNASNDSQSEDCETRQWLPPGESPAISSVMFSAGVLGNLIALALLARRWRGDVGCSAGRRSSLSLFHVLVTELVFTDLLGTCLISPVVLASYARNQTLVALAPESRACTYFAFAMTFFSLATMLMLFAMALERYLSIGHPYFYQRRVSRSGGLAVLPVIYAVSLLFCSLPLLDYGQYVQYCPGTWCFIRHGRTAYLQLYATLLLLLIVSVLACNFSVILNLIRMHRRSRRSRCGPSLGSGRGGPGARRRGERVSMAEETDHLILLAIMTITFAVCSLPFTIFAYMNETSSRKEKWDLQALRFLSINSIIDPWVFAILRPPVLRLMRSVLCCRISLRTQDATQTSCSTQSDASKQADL
T5 sequence (Q15722 whole entry): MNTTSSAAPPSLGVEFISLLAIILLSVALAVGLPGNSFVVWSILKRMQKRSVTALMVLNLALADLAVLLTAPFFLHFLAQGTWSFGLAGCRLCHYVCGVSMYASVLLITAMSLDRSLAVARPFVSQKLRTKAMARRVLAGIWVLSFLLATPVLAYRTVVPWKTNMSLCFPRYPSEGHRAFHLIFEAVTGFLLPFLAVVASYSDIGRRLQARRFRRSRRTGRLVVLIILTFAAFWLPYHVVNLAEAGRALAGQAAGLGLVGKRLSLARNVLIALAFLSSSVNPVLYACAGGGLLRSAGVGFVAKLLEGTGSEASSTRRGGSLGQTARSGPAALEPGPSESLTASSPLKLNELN
T3 sequence (P34972 whole entry): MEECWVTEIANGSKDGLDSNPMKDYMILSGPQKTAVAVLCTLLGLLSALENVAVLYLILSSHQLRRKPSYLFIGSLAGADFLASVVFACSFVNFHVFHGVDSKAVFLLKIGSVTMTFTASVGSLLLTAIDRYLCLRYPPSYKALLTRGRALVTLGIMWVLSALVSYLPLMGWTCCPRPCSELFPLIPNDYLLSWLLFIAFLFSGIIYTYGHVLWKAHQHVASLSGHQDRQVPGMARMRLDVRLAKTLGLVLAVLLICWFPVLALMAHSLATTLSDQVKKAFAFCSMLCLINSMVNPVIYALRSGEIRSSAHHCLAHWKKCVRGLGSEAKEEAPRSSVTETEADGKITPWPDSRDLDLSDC
T6 sequence (P37288 whole entry): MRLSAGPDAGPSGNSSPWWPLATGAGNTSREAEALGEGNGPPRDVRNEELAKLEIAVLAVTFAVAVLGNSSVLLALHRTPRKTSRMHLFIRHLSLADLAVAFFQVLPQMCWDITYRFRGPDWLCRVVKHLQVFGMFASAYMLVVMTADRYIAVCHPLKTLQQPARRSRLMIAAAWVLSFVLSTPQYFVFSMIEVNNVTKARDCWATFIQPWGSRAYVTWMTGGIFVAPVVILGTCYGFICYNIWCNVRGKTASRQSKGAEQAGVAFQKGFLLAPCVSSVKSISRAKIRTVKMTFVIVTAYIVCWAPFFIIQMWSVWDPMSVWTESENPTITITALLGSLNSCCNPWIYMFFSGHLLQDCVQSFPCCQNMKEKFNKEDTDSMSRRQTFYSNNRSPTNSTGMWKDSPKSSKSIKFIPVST
T1 sequence (P37231 whole entry): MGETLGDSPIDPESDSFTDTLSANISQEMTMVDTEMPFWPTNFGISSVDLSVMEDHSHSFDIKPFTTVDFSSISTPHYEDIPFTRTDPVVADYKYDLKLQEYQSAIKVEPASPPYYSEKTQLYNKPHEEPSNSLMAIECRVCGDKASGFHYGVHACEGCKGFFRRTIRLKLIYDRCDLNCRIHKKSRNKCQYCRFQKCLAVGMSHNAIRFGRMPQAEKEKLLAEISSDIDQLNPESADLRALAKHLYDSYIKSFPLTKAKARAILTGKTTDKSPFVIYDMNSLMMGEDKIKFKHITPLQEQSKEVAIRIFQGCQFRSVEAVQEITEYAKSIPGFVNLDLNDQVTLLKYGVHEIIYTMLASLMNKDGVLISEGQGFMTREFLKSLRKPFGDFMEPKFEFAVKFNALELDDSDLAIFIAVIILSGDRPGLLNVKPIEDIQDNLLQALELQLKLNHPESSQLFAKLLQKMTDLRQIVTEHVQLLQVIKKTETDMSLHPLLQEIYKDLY
T8 sequence (P0DMS8 whole entry): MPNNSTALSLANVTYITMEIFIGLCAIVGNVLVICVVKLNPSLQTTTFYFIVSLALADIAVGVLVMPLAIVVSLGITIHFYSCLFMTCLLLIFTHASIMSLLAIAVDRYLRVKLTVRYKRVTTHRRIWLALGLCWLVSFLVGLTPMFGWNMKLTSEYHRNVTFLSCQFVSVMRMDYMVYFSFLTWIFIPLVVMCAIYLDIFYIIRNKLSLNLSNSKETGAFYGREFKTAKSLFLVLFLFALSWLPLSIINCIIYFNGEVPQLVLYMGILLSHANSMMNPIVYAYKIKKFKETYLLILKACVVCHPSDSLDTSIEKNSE
T7 sequence (P34981 whole entry): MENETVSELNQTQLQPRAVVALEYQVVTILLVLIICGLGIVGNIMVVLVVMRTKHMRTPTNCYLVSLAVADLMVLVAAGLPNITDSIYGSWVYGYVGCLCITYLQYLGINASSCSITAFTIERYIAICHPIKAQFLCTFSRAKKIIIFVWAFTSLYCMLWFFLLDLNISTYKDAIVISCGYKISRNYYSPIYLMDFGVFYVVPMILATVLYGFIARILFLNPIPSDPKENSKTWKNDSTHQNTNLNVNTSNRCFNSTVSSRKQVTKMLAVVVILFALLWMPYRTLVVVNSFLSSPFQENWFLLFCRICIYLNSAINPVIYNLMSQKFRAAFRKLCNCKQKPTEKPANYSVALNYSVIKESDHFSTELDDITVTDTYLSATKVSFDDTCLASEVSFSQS
T4 sequence (P06401 whole entry): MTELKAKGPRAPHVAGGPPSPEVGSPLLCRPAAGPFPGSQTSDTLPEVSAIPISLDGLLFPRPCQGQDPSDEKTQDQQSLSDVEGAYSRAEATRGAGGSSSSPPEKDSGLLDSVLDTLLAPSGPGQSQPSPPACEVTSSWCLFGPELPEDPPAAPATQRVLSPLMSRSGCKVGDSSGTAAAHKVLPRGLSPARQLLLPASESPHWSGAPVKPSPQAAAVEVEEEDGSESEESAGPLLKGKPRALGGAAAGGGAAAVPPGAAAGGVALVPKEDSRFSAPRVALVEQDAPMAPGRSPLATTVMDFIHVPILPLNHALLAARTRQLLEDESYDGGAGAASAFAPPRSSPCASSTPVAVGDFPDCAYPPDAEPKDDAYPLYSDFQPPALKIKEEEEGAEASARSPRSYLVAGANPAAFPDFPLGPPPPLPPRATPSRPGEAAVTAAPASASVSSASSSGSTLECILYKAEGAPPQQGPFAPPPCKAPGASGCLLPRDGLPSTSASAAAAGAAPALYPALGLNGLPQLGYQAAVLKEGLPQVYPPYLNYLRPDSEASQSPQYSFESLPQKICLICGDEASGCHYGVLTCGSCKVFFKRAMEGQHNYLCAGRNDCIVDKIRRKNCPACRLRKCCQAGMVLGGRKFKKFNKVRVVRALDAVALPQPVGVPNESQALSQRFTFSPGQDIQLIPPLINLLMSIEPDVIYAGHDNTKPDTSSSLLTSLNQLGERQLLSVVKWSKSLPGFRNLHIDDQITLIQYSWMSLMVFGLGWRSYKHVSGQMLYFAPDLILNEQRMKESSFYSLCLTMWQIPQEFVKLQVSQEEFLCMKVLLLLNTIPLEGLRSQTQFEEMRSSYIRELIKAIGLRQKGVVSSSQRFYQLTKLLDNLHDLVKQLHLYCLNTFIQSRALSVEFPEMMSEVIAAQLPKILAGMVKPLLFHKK

SMILES: Nc1ccccc1NC(=O)CCCCCC(=O)Nc1ccccc1 [Compound 4b]
inhibition at 10 µM [1]: 13% | inhibition at 10 µM [2]: 15% | inhibition at 10 µM [3]: 0% | inhibition at 10 µM [4]: 0% | inhibition at 10 µM [5]: 2% | inhibition at 10 µM [6]: 10% | inhibition at 10 µM [7]: 9% | inhibition at 10 µM [8]: 8% | IC50 ([9]; 24 h pre-incubation with cells (maximal), read-out: cellular IC50, Boc_Lys_Ac substrate ('Class I' HDAC inhibition)): 1.8 µM | IC50 ([9]; Jurkat E6.1, standard protocol, total incubation time 5 h, read-out: cellular IC50, Boc_Lys_Ac substrate (Class I inhibition)): 5.3 µM | IC50 ([9]; dilution prepared 21 h previously in DMSO or aqueous buffer, no pre-incubation with cells, read-out: cellular IC50, Boc_Lys_Ac substrate): 15 µM | IC50 ([9]; freshly prepared compound dilution, no pre-incubation with cells, read-out: cellular IC50, Boc_Lys_Ac substrate): 16 µM | IC50 ([9]; no pre-incubation with cells, read-out: cellular IC50, Boc_Lys_Ac substrate): 16 µM | solubility ([10]; NMP/PEG400/Solutol HS-15/Lutrol F68 aqueous vehicle, aqueous with cosolvent or surfactant or cyclodextrin, free base, 2% N-methyl-2-pyrollidone, 18% polyethylene glycol 400, 10% solutol HS-15, 70% (1% Lutrol F68 in water), read-out: soluble formulation concentration): 1000 µg/mL (≈ 3.07 mM) | 4b dissolved (filtrate of suspension) ([10]; free base, 2-hydroxypropyl-β-cyclodextrin 1∶5 molar ratio, target 1 mg/mL): 0.1 mg/mL | solubility in water ([10]; neutral pH, free base): highly insoluble | solubility in DMSO ([10]; prepared at 1 mg/ml): soluble | parent remaining ([11]; after 40 min incubation with mouse hepatic microsomes): 16% | predicted in vivo plasma clearance [11]: 43.3 mL/min/kg | predicted clearance as share of liver plasma flow ([11]; mouse): approximately 87% | half-life at 1 µM [11, 13]: ~20 min | % inhibition of control specific binding [12]: 2%

inhibition at 10 µM ([1]; 10 μM): 13% | inhibition at 10 µM ([2]; 10 μM): 24% | inhibition at 10 µM ([3]; 10 μM): 3% | inhibition at 10 µM ([4]; 10 μM): 1% | inhibition at 10 µM ([5]; 10 μM): 0% | inhibition at 10 µM ([6]; 10 μM): 11% | inhibition at 10 µM ([7]; 10 μM): 1% | inhibition at 10 µM ([8]; 10 μM): 11% | solubility in aqueous media [10]: readily soluble | concentration of C1 in incubations with 4b ([11]; all incubations with 4b, below the limit of quantification): < 100 nM | predicted in vivo plasma clearance [11]: > 48.2 mL/min/kg | half-life at 1 µM [11, 13]: < 5 min | half-life at 1 µM ([11]; mouse, without NADPH, read-out: in vitro half-life in liver microsomes): 7 min | % inhibition of control specific binding [12]: 4%
SMILES: O=C(CCCCCc1nc2ccccc2[nH]1)Nc1ccccc1 [Compound C1, 6-(1-H-benzo[d]imidazol-2-yl)-N-phenylhexanamide]
activity in the Class I cellular HDAC (Boc_Lys_Ac) assay ([9]; up to 50 µM, 5 h incubation): no activity
